According to article PMC12194779, “Synergistic Insecticidal Activity of Plant Volatile Compounds: Impact on Neurotransmission and Detoxification Enzymes in Sitophilus zeamais” (Insects, 2025):
≈ marks a conversion by molar mass, not a printed value. Where “and” joins values, the source holds several entries; their conditions need not be identical. Equal entries are not always repeated. Where two headings read alike, the source gives them in different places.

Key:
[1] = parameters: method as in doi:10.1016/B978-0-12-819092-0.00021-2; conditions: cited from earlier work
[2] = test system: glutathione S-transferase (GST) activity in S. zeamais; test: GST activity assay (modified Habig) with S. zeamais protein extract; assay type: biochemical, Sitophilus zeamais; conditions: 120 mg/L
Procedure: (§1) Enzymatic assays were performed in the assay buffer, consisting of 0.1 M potassium phosphate buffer (pH 7.2). The compounds and mixtures evaluated in the in vitro assays were prepared in the same buffer supplemented with 0.5% (v/v) Triton X-100 (Sigma-Aldrich®, Saint Louis, MO, USA).
(§2) A modified version of the method described by Oviedo et al. was used. Adults of S. zeamais (8 g; ~3125 insects) were frozen in liquid nitrogen, homogenized in a 1:10 ratio with assay buffer, and centrifuged at 13,000× g for 60 min at 4 °C. The supernatant was filtered, and 20 mM benzamidine was added. The extracts were stored in 5 mL aliquots at −20 °C. Preliminary assays were performed to quantify the specific activity of AChE (0.02–1.00 U/mL), GST (0.1–0.8 U/mL), and CAT (0.1–25 U/mL), and to optimize assay conditions (enzyme dilution: 1/8 to 1% v/v; substrate concentrations: 2 × km or within assay linearity). Each experiment was performed independently three times, with three technical replicates per experiment.
A modified version of Habig’s method was used. The protein extract (50 µL; 0.59 U/mL) was incubated with 50 µL of the compound or mixture (120 mg/L), followed by 50 µL each of CDNB and reduced glutathione (GSH). Kinetic absorbance was measured at 340 nm for 8 min. Blanks (without substrate) and quercetin (positive control) were included. Inhibition (%) was calculated using Equation (5), and treatment differences were evaluated via parametric ANOVA (α = 0.05) in GraphPad Prism 8.0.2 [42, 43]. Each experiment was performed independently three times, with three technical replicates per experiment.(5) % Inhibition=1−Am−AB/AC ×100 where Am is the absorbance of the sample, AB is the absorbance of the blank, and AC is the absorbance of the negative control.

[3] = test system: Sitophilus zeamais; test: whole plant or invertebrate; conditions: for EC90: read-out: Fumigant Toxicity LC90 (95% FL)
Procedure: (§3) The insects used in this study were Sitophilus zeamais Motschulsky (Coleoptera: Curculionidae), identified by the Instituto Colombiano Agropecuario (ICA) under report number R3823M0000425. […] The adult insects used in all the experiments were 6 to 10 days post-emergence.
The treated disks were affixed to the inner surface of the screw cap of 22 mL glass vials. […] All treatments were performed in two independent experiments, each with five replicates.
(§4) Mixtures predicted by the RSM were prepared based on mole fractions. […] Four replicates were performed for each treatment and control across two independent experimental runs.
Dose reduction indices (DRIs) were also calculated to estimate how much the dose of each compound in a synergistic combination could be reduced to achieve a 50% effect (Equation (4)). DRIs were interpreted as favorable when >1, neutral at 1, and unfavorable when <1. Values above the log DRI = 0 line indicate favorable dose reductions.(4) (IRD)i=CL50i(fax)i/(1−(fax)i)^1/mi/(D)i

[4] = test system: AChE of S. zeamais; test: AChE activity assay (modified Ellman) with S. zeamais protein extract; assay type: biochemical, Sitophilus zeamais; parameters: key to AChE Effect Inhibitor Type: C: competitive inhibitor; NC: non-competitive inhibitor; conditions: for AChE inhibition: 120 mg/L; for AChE Effect Inhibitor Type: Lineweaver–Burk; for AChE Effect IC50 ± SD / Ki: S. zeamais protein extract; for Ki: read-out: AChE Effect ki ± SD (inhibitory constant)
Procedure: The compounds and mixtures evaluated in the in vitro assays were prepared in the same buffer supplemented with 0.5% (v/v) Triton X-100 (Sigma-Aldrich®, Saint Louis, MO, USA).
The supernatant was filtered, and 20 mM benzamidine was added. The extracts were stored in 5 mL aliquots at −20 °C. Preliminary assays were performed to quantify the specific activity of AChE (0.02–1.00 U/mL), GST (0.1–0.8 U/mL), and CAT (0.1–25 U/mL), and to optimize assay conditions (enzyme dilution: 1/8 to 1% v/v; substrate concentrations: 2 × km or within assay linearity).
Then, 50 µL of DTNB and 50 µL of ATChI were added. […] Inhibition percentages were calculated using Equation (5).

[5] = test system: catalase (CAT) activity in S. zeamais; test: CAT activity assay (adapted Sinha) with S. zeamais protein extract; assay type: biochemical, Sitophilus zeamais; conditions: 120 mg/L
Procedure: as §1, §2
Sinha’s method was adapted. In Eppendorf tubes, 100 µL of protein extract (24.77 U/mL) was mixed with 100 µL of the compound or mixture (120 mg/L) and incubated at 37 °C for 15 min. Then, 200 µL of H2O2 was added and shaken for 2.5 min. The reaction was stopped by adding 600 µL of K2Cr2O7, followed by incubation at 100 °C for 10 min. A 200 µL aliquot was transferred to a 96-well plate, and absorbance was recorded at 570 nm. Blanks and sodium azide (positive control) were used. The percentage of inhibition was calculated using Equation (5). Differences among treatments were analyzed via ANOVA (α = 0.05) in GraphPad Prism. Each experiment was performed independently three times, with three technical replicates per experiment.

[6] = test system: Sitophilus zeamais; assay type: in vivo; conditions: for Contact Toxicity LD50i (LC-95%): mixtures and their components (Table 3); for Contact Toxicity LD90 (95% FL) / Contact Toxicity LD50 (95% FL): topical, 24 h after exposure
Procedure: as §3
Groups of 10 insects, previously placed in Petri dishes, were immobilized by exposure to low temperatures (0 °C). An initial dose of 50.0 µg per adult was applied topically to the dorsal thorax of each insect using aliquots of 0.20 µL from 0.25 mg/µL solutions in n-hexane. […] All treatments were performed in two independent experiments, each with four replicates. Insect mortality was assessed after 24 h, and mortality percentages were calculated using Abbott’s correction formula (Equation (1)).
as §4
Dose reduction indices (DRIs) were also calculated to estimate how much the dose of each compound in a synergistic combination could be reduced to achieve a 50% effect (Equation (4)). DRIs were interpreted as favorable when >1, neutral at 1, and unfavorable when <1.

[7] = test system: S. zeamais; conditions: cited from earlier work; for LC50 in vapor-phase assays without physical barriers: previous reports
[8] = test system: S. zeamais; parameters: method as in PMID 21173724, PMID 22236213; conditions: cited from earlier work
[9] = cited from earlier work
[10] = test system: CAT activity in S. oryzae; parameters: method as in PMID 31027573; conditions: cited from earlier work
[11] = Sitophilus zeamais, 24 h, read-out: Fumigant Toxicity LC50i (LC-95%)
[12] = Sitophilus zeamais, in Homo sapiens, 24 h, read-out: Fumigant Toxicity LC50 (95% FL)
[13] = Sitophilus zeamais, in Homo sapiens, 24 h
[14] = Sitophilus zeamais, read-out: LC50 values, fumigant activity (Figure 3)

CC(C)=C1CC[C@@H](C)CC1=O [Compound C1, R-(+)-Pulegone]
LD50 (i.p.) ([1]; i.p.): 73 mg/kg | LD50 (i.v.) ([1]; i.v.): 80 mg/kg | oral LD50 [1]: 810 mg/kg | GST Inhibition λ340 (%) [2]: 2.4% | LC50 [3, 11]: 0.58 µg/mL | LC50 [3, 12]: 0.58 µg/mL and 3.81 µM | EC90 [3, 13]: 0.92 µg/mL and 6.07 µM | AChE inhibition [4]: 33.52% | CAT Inhibition λ570 nm (%) [5]: 4.3% | Contact Toxicity LD50i (LC-95%) [6]: 4.85 µg/Adult | Contact Toxicity LD90 (95% FL) [6]: 7.40 (6.79–8.28) µg/Adult

CC(C)=C1CC[C@H](C)CC1=O [Compound C2, S-(−)-Pulegone]
GST Inhibition λ340 (%) [2]: 4.3% | LC50 [3, 11]: 0.97 µg/mL | LC50 [3, 12]: 0.97 µg/mL and 6.37 µM | EC90 [3, 13]: 1.68 µg/mL and 11.1 µM | AChE inhibition type (Lineweaver–Burk plots), in words [4]: competitive inhibition | AChE inhibition, times higher than the R-enantiomer (C1) [4]: 2.3 times | AChE Effect Inhibitor Type [4]: C | AChE Effect IC50 ± SD [4]: 36.60 ± 3.29 mg/L | Ki [4]: 50.3 ± 0.74 µM | CAT Inhibition λ570 nm (%) [5]: 2.4% | Contact Toxicity LD50i (LC-95%) [6]: 7.44 µg/Adult | Contact Toxicity LD90 (95% FL) [6]: 9.64 (9.05–10.54) µg/Adult

C=C(C)[C@@H]1CC=C(C)C(=O)C1 [Compound C4, R-(−)-Carvone]
Fumigant LC50 reported in 7-day exposure assays [7]: 2.76 mg/L | Contact LD50 previously reported for 7-day assays [8]: 2.79 µg/adult | LC50 [3, 12]: 1.42 µg/mL and 9.48 µM | EC90 [3, 13]: 2.17 µg/mL and 14.4 µM | LC50 [3, 14]: 1.42 µg/mL | Contact Toxicity LD50 (95% FL) [6]: 16.89 (14.56–19.35) µg/Adult | Contact Toxicity LD90 (95% FL) [6]: 28.45 (24.99–34.24) µg/Adult

CC1=CC[C@@](O)(C(C)C)CC1 [Compound C5, R-(−)-Terpinen-4-ol]
Fumigant LC50 reported in 7-day exposure assays [7]: 4.79 mg/L | LC50 [3, 12]: 4.03 µg/mL and 26.1 µM | EC90 [3, 13]: 6.13 µg/mL and 39.8 µM | LC50 [3, 14]: 4.03 µg/mL | Contact Toxicity LD50 (95% FL) [6]: 19.64 (18.42–21.45) µg/Adult | Contact Toxicity LD90 (95% FL) [6]: 24.82 (22.64–29.63) µg/Adult

Cc1ccc(C(C)C)cc1 [Compound C12, p-Cymene]
LC50 in vapor-phase assays without physical barriers [7]: 23.3 mg/L (≈ 174 µM) | LC50 [3, 12]: 28.7 µg/mL and 214 µM | EC90 [3, 13]: 47 µg/mL and 350 µM

CC1=CC=C(C(C)C)CC1 [Compound C13, α-Terpinene]
LC50 in vapor-phase assays without physical barriers [7]: 56.2 mg/L (≈ 413 µM) | LC50 [3, 12]: 60.2 µg/mL and 442 µM | EC90 [3, 13]: 96.2 µg/mL and 706 µM

CC1=CC[C@H](C(C)C)C=C1 [Compound C14, R-(−)-α-Phellandrene]
LC50 in vapor-phase assays without physical barriers [7]: 72.7 mg/L (≈ 534 µM) | Fumigant Toxicity LC50 (95% FL) ([3]; S. zeamais adults, 24 h after exposure): 88.87 (69.70–108.27) mg L^−1 | LC50 ([3]; read-out: Fumigant Toxicity LC50 (95% FL), S. zeamais adults, 24 h after exposure): 652 µM

CC1=CCC2CC1C2(C)C (stereo not drawn) [Compound C19, α-Pinene]
LC50 in vapor-phase assays without physical barriers [7]: 120 µL/L | LC50 [3, 12]: 110 µg/mL and 810 µM | EC90 [3, 13]: 179 µg/mL and 1.31 mM

CCCCCCCCC [Compound C20, n-Nonane]
Contact LD50 previously reported for 7-day assays [8]: 17.62 µg/adult | LC50 [3, 12]: 109 µg/mL and 851 µM | EC90 [3, 13]: 172 µg/mL and 1.34 mM | Contact Toxicity LD50 (95% FL) [6]: 21.42 µg/Adult

Cc1ccc(C(C)C)cc1O [Compound C25, Carvacrol]
oral LD50 [1]: 2462.23 mg/kg | GST Inhibition λ340 (%) [2]: 19.3% | AChE inhibition [4]: 46.85% | Contact Toxicity LD50i (LC-95%) [6]: 8.71 µg/Adult | Contact Toxicity LD90 (95% FL) [6]: 13.45 (12.19–15.38) µg/Adult

C=CCc1ccc(O)c(OC)c1 [Compound C26, Eugenol]
GST Inhibition λ340 (%) [2]: 24.3% | CAT Inhibition λ570 nm (%) [5]: 19.9% | Contact Toxicity LD50i (LC-95%) [6]: 20.90 µg/Adult | Contact Toxicity LD50 (95% FL) [6]: 20.9 (19.22–22.65) µg/Adult | Contact Toxicity LD90 (95% FL) [6]: 30.82 (28.35–34.42) µg/Adult

C/C=C/c1ccc(OC)cc1 [Compound C29, trans-Anethol]
GST Inhibition λ340 (%) [2]: ~ 17.5% and 17.5% | AChE inhibition type (Lineweaver–Burk plots), in words [4]: competitive inhibition | AChE Effect Inhibitor Type [4]: C | AChE Effect IC50 ± SD [4]: 4.24 ± 0.36 mg/L | Ki [4]: 43.6 ± 3.46 µM | AChE potency, times more potent than isomer estragole (C11) ([4]; ratio of IC50): 6.5 times | CAT Inhibition λ570 nm (%) [5]: 23.3% | Contact Toxicity LD90 (95% FL) [6]: 46.08 (41.56–52.95) µg/Adult

CC(C)=CCC[C@@H](C)CC=O [Compound C33, Citronellal]
Contact LD50 previously reported for 7-day assays [8]: 8.54 µg/adult | GST Inhibition λ340 (%) [2]: 4.3% | AChE inhibition type (Lineweaver–Burk plots), in words [4]: competitive inhibition | AChE Effect Inhibitor Type [4]: C | AChE Effect IC50 ± SD [4]: 7.72 ± 0.78 mg/L | Ki [4]: 199 ± 3.51 µM | Contact Toxicity LD50i (LC-95%) [6]: 36.94 µg/Adult | Contact Toxicity LD50 (95% FL) [6]: 36.94 (34.60–39.14) µg/Adult | Contact Toxicity LD90 (95% FL) [6]: 50.64 (47.46–55.39) µg/Adult

CC1(C)[C@H](C(=O)O[C@H](C#N)c2cccc(Oc3ccccc3)c2)[C@@H]1C=C(Br)Br [deltamethrin]
mortality ([9]; 1 ppm, after 14 days): 45%

CC(C)[C@@H]1CC[C@@H](C)CC1=O [menthone]
reduction of CAT activity [10]: ~ 30%

CC1(C)C(C=C(Cl)Cl)C1C(=O)OCc1cccc(Oc2ccccc2)c1 (stereo not shown) [permethrin]
reported LD50 [9]: 42.75 µg/adult
